Experimental data: US20130053381A1, “2,4-DIOXO-1,4-DIHYDRO-2H-QUINAZOLIN-3-YL-SULFONAMIDE DERIVATIVES” (NOVARTIS AG, priority 2010, published 2013)

What was measured:
AMPA receptor = test: [3H]CNQX binding test (AMPA-receptor binding); parameters: species or system rat; conditions: Table 2 parent compounds; rat; read-out: [3H]CNQX IC50 AMPA receptor binding, rat
Protocol: CNQX binding test (Honore et al. Biochem. Pharmacol. 1989, 38: 3207-3212). This test is performed as follows.
Brain membranes: The animals are sacrificed, the brain removed and homogenized in 10 volumes of ice-cold 10% sucrose with a glass/Teflon homogenizer at positions 5 for 30 sec. The membranes are centrifuged at 1000×g for 10 min, and the supernatant centrifuged at 20,000×g for 15 min. The resulting pellet is resuspended in 10 volumes of cold water with a tissue homogenizer (Brinkman Polytron) at position 5 for 15 sec and the suspension centrifuged at 8000×g for 10 min. The supernatant including the buffy layer is centrifuged at 40,000×g for 20 min, the pellet resuspended in 5 volumes of water and the suspension frozen (20-30 min in dry ice/MeOH) and thawed (water-bath at 37° C.) twice. The suspension is centrifuged at 40,000×g for 20 min, the pellet resuspended in 50 mM HEPES/KOH, pH 7.5, and centrifuged at 40,000×g for 10 min. The final pellet is resuspended with a glass/Teflon homogenizer in 5 volumes of HEPES/KOH buffer; 2 mL aliquots are frozen and stored in liquid nitrogen.
Pretreatment of membranes: Membranes are thawed at 35° C. and once washed with 50 mM HEPES/KOH by centrifugation at 39,000×g for 10 min. The final pellet is resuspended with a glass/Teflon homogenizer in the same buffer.
Radioligand binding assay: It is performed using 96-well microtiterplates in a volume of 0.3 mL of 50 mM HEPES/KOH, pH 7.2, 100 μg membrane protein, 5 nM [^3H]-CNQX (NEN) and the compound to be tested. Incubation is performed at 4° C. for 40 min and the reaction is terminated by centrifugation (Sigma 4K10) at 3700×g for 30 min. The pellet is washed once with cold buffer and then dissolved in 0.02 mL of the tissue solubilizer Soluene for 20 min. Two hundred μL of the scintillation fluid Microscint 20 (Packard) are added and the radioactivity is counted in a Packard Topcount scintillation counter at an efficiency of 40-45%. Nonspecific binding is defined by 10 μM CNQX. Assays are performed in triplicate.

OF1 mice = test: Maximal electroshock test (MES Test); assay type: in vivo; conditions: Mus musculus, po; 50 mg/kg, p.o., pre-treatment time −1 h; read-out: %-Protection
Summary of the method: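 Compound given p.o. (typically 50 mg/kg) 1 h before tonic-clonic convulsions were induced via temporal electrodes (50 Hz, 18 mA, 0.2 s); seizure lasting 3 s or less counted as protection. Read-out is percent protected of five mice per condition; ED50 calculated, blood exposure sampled after shock.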

- IC50 (AMPA receptor): 0.341 µM
Compound: CCc1cc2[nH]c(=O)n(NS(C)(=O)=O)c(=O)c2cc1-c1ccnn1CC [Example 13.0, N-[7-ethyl-6-(2-ethyl-2H-pyrazol-3-yl)-2,4-dioxo-1,4-dihydro-2H-quinazolin-3-yl]-methanesulfonamide]
- responders at 50 mg/kg (OF1 mice): 60%
